Read-outs that look alike come from different tables or passages of the source.
Experiments:
[1] = biological target: T1, GDP-loaded HIS-KRAS (G12D, aa 1-169) (Homo sapiens, UniProt P01116, G12D); assay: SOS1 catalyzed nucleotide exchange assay; format: biochemical; conditions: SOS1 ExD, TR-FRET, 4 hours at 25° C.
T1 construct: GDP-loaded HIS-KRAS (G12D, aa 1-169)
Description: 1. SOS1 Catalyzed Nucleotide Exchange Assay
GDP-loaded HIS-KRAS (G12D, aa 1-169) was pre-incubated with a compound in the presence of 10 nM GDP in a 384-well plate (Greiner) for 15 min, then purified SOS1 ExD (Flag tag, aa 564-1049), BODIPY™ FL GTP (Invitrogen) and MAb (monoclonal antibody) Anti 6HIS-Tb cryptate Gold (Cisbio) were added to the assay wells (Final concentration: 1.5 nM GDP-loaded HIS-KRAS (G12D), 5 nM GDP, 0.5 μM SOS1 ExD, 80 nM BODIPY™ FL GTP, 52.5 ng/mL MAb Anti 6HIS-Tb cryptate Gold) and incubated for 4 hours at 25° C. Wells containing same percent of DMSO served as vehicle control, and wells without KRAS served as low control. TR-FRET signals were read on Tecan Spark multimode microplate reader. The parameters were F486: Excitation 340 nm, Emission 486 nm, Lag time 100 μs, Integration time 200 μs; F515: Excitation 340 nm, Emission 515 nm, Lag time 100 μs, Integration time 200 μs. TR-FRET ratios for each individual wells were calculated by equation: TR-FRET ratio=(Signal F515/Signal F486)*10000. The percent of activation of compounds treated wells were normalized between vehicle control and low control (% Activation=(TR-FRET ratioCompound treated−TR-FRET ratioLow control)/(TR-FRET ratioVehicle control−TR-FRET ratioLow control)*100%). Then the data were analyzed either by fitting a 4-parameter logistic model or by Excel to calculate IC50 values.

[2] = biological target: T2, GppNp-loaded HIS-KRAS (G12D, aa 1-169) / cRAF RBD (Homo sapiens, UniProt P01116, G12D); assay: GTP-KRAS and cRAF interaction assay; format: binding; conditions: HTRF, 2 hours at 25° C.
T2 construct: GppNp-loaded HIS-KRAS (G12D, aa 1-169)
T2 sequence (P01116 1-169 isoform P01116-2 G12D): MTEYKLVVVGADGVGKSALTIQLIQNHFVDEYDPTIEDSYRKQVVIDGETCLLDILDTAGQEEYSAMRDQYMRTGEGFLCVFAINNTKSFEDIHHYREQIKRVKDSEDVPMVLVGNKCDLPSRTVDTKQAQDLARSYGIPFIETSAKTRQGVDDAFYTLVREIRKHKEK
Description: 2. GTP-KRAS and cRAF Interaction Assay
GppNp-loaded HIS-KRAS (G12D, aa 1-169) was pre-incubated with a compound in the presence of 200 µM GTP in a 384-well plate (Greiner) for 15 min, then cRAF RBD (GST tag, aa 50-132, CreativeBioMart), MAb Anti GST-d2 (Cisbio) and MAb Anti 6HIS-Tb cryptate Gold (Cisbio) were added to the assay wells (Final concentration: 2.0 nM GppNp-loaded HIS-KRAS (G12D), 100 μM GTP, 35 nM cRAF RBD, 1 μg/mL MAb Anti GST-d2, 52.5 ng/mL MAb Anti 6HIS-Tb cryptate Gold) and incubated for 2 hours at 25° C. Wells containing same percent of DMSO served as vehicle control, and wells without KRAS served as low control. HTRF signals were read on Tecan Spark multimode microplate reader and HTRF ratios were calculated under manufacturer's instructions. The percent of activation of compounds treated wells were normalized between vehicle control and low control (% Activation=(HTRF ratioCompound treated−HTRF ratioLow control)/(HTRF ratioVehicle control−HTRF ratioLow control)*100). Then the data were analyzed either by fitting a 4-parameter logistic model or by Excel to calculate IC50 values.

[3] = test system: AGS cells expressing KRAS G12D; assay: Phospho-ERK1/2(THR202/TYR204) HTRF assay; format: cell-based; conditions: 2 hours incubation, read-out: AGS p-ERK IC50
Description: AGS cells expressing KRAS G12D were cultured in F12K medium (Gibco) containing 10% fetal bovine serum (Gibco). The AGS cells in culture medium were seeded in 96-well plates at a concentration of 40,000 cells/well and then put in a 37° C./5% CO2 cell incubator to incubate overnight. The next day, culture medium was removed and the compound diluted in assay medium (F12K, 0.1% FBS) was added in each well. After 2 hours incubation in a 37° C./5% CO2 cell incubator, the assay medium in 96-well plates was removed, then 50 μL of 1× blocking reagent-supplemented lysis buffer (Cisbio) was added and the plates were incubated at 25° C. for 45 min with shaking. 10 μL of cell lysates from the 96-well plates were transferred to a 384-well plate (Greiner) containing 2.5 μL/well HTRF® pre-mixed antibodies (Cisbio 64AERPEH). Incubate 4 hours at 25° C. and then read HTRF signals on Tecan Spark multimode microplate reader. The data were analyzed using a 4-parameter logistic model to calculate IC50 values.

AGS = assay: Cell growth inhibition assay (AGS); format: cell-based; conditions: 6 days incubation, CellTiter-Glo
Description: (§1) 4. Cell Growth Inhibition Assay
AGS cultured in F12K medium (Gibco) containing 10% fetal bovine serum (Gibco). Cells in culture medium were plated in 96-well plates at a concentration of 500 cells/well ([…]) and allowed to attach overnight.
(§2) The next day, compounds were diluted in culture medium and added to the plates. After 6 days incubation in a 37° C./5% CO2 cell incubator, the cell viability was detected by CellTiter-Glo® Luminescent Cell Viability Assay kit (Promega). Luminescent signals were read on Tecan Spark multimode microplate reader and analyzed using a 4-parameter logistic model to calculate IC50 values.

AsPC-1 = assay: Cell growth inhibition assay (AsPC-1); format: cell-based; conditions: AsPC-1, 6 days incubation, CellTiter-Glo
Description: as §1
AsPC-1 cultured in RPMI-1640 medium (Gibco) containing 10% fetal bovine serum (Gibco). Cells in culture medium were plated in 96-well plates at a concentration of 1000 cells/well ([…]) and allowed to attach overnight.
as §2

T1 sequence (P01116 1-169 isoform P01116-2 G12D): as above

Structure (SMILES) | IC50 [1] [µM] | IC50 [2] [µM] | IC50 ([3]; Homo sapiens) [µM] | IC50 (AGS; Homo sapiens, 144 h) [µM] | IC50 (AsPC-1; Homo sapiens, ASPC1, 144 h) [µM] | IC50 [3] [µM] | IC50 (AGS) [µM] | IC50 (AsPC-1) [µM]
C#Cc1cccc2cc(O)cc(-c3cc4nc(OC[C@@]56CCCN5C[C@H](F)C6)nc(N5CC6CCC(C5)N6)c4cc3Cl)c12 [Compound 97] | 0.00764 | 0.0446 | 0.00522 | 0.0453 | 0.127 | – | – | –
C#Cc1cccc2cc(O)cc(-c3c(C#N)cc4c(N5CC6CCC(C5)N6)nc(OCC5(CN6CCOCC6)CC5)nc4c3F)c12 (single isomer, unassigned) [Compound 60B] | 0.0125 | 0.0629 | – | – | – | 0.00696 | 0.0131 | 0.207
CCc1cccc2cc(O)cc(-c3ccc4c(N5CC6CCC(C5)N6)nc(OC[C@@]56CCCN5C[C@H](F)C6)nc4c3F)c12 [Compound 91] | 0.00482 | 0.102 | 0.00854 | 0.0123 | 0.0316 | – | – | –
C#Cc1cccc2cc(O)cc(-c3ccc4c(N5CC6CCC(C5)N6)nc(OCC5(CN6CCOCC6)CC5)nc4c3C)c12 [Compound 132] | 0.0257 | 0.794 | 0.0964 | 0.0332 | 0.111 | – | – | –
C#Cc1cccc2cc(O)cc(-c3c(F)cc4c(N5CC6CCC(C5)N6)nc(OCC5(CN6CCS(=O)(=O)CC6)CC5)nc4c3F)c12 [Compound 83] | 0.018 | 3.15 | 0.131 | 0.273 | 5.09 | – | – | –
CCc1cccc2cc(O)cc(-c3ccc4c(N5CC6CCC(C5)N6)nc(OCC5(CN6CCOCC6)CC5)nc4c3F)c12 [Compound 47] | 0.00721 | 0.262 | 0.0296 | 0.068 | 0.0763 | – | – | –
C#Cc1cccc2cc(O)cc(-c3c(Cl)cc4c(N5CC6CCC(C5)N6)nc(OCC5(CN6CCOCC6)CC5)nc4c3F)c12 (single isomer, unassigned) [Compound 35B] | 0.00594 | 0.111 | – | – | – | 0.0062 | 0.0134 | 0.0395
C#Cc1cccc2cc(O)cc(-c3cc4nc(OCC5(CN6CCOCC6)CC5)nc(N5CC6CCC(C5)N6)c4cc3F)c12 [Compound 108] | 0.0281 | 0.298 | 0.019 | 0.0219 | 0.0636 | – | – | –
C#Cc1cccc2cc(O)cc(-c3c(C4CC4)cc4c(N5CC6CCC(C5)N6)nc(OCC5(CN6CCOCC6)CC5)nc4c3F)c12 [Compound 38] | 0.0138 | 0.126 | 0.0198 | 0.051 | 0.141 | – | – | –
C#Cc1cccc2cc(O)cc(-c3ccc4c(N5CC6CCC(C5)N6)nc(OC[C@@]56CCCN5C[C@H](F)C6)nc4c3)c12 [Compound 96] | 0.0295 | 0.146 | 0.0342 | 0.205 | 0.394 | – | – | –
C#Cc1cccc2cc(O)cc(-c3cc4nc(OCC5(CN6CCOCC6)CC5)nc(N5CC6CCC(C5)N6)c4cc3C#N)c12 [Compound 61] | 0.0235 | 0.284 | 0.0328 | 0.13 | 0.897 | – | – | –
C#Cc1cccc2cc(O)cc(-c3cc4nc(OCC5(CN6CCOCC6)CC5)nc(N5CC6CCC(C5)N6)c4cc3Cl)c12 [Compound 57] | 0.0458 | 0.35 | 0.0958 | 0.124 | 0.399 | – | – | –
